Assays:
[1] = tested on: SK-BR-3 tumor cells; experiment: In vitro activity test (MTS, 5 days), growth inhibition of SK-BR-3 cells; type: cell-based; details: Homo sapiens, 120 h
Procedure: • Cells: derived from the Cell Bank of the Chinese Academy of Sciences; • Tumor cell culture medium: Gibco™; • Fetal Bovine Serum (FBS): BIOWEST™;
• Growth medium (with 10% FBS, Penicillin/streptomycin (100 U/mL); • Assay medium (with 1% FBS, Penicillin/streptomycin (100 U/mL);
The biosafety cabinet was turned on for UV light irradiation 30 min in advance, and subsequently ventilated for 3 minutes. The growth medium, assay medium, D-PBS and trypsin were preheated in a 37°C thermostatic water bath, after which the surface was sterilized with alcohol and placed in the biosafety cabinet. Cells with a confluence of ~80% (logarithmic growth phase) were selected and placed in a biosafety cabinet, old medium was aspirated off, rinsed with D-PBS, aspirated and discarded, digested with trypsin for 2-3 minutes, after which growth medium was added to terminate the trypsin, and centrifuged at 500 × g for 5 minutes. The centrifugation supernatant was aspirated off, and the cells were mixed with 4 mL of assay medium, and 100 uL of the cells were taken for counting (of which 50 uL of cytosol was taken out, and 50 uL of 0.4% cell solution was added to 50 µL of 0.4% Trypan Blue Stain and mix, count after mixing). Spread the plate according to the previously set cell number, 80 uL/well in 96-well plate, wells E11, F11, G11 only received 80 uL of detection medium, the wells on the edge received 200 uL of DPBS to seal the edge. After the cells are completely attached to the wall (usually at least 4 hours), the test samples were configured and diluted: 1.0 mL of 2.5 µM (5 ×Top Dose) test samples were configured with the assay medium and dispensed into the first column of the V-type 96-well plate, with 200 µL in each well; 180 µL of assay medium was added to the second through eighth columns, and 30 µL was added to the second column from the first column, and mixed up and down with a row gun for […]. The test medium was mixed up and down 10 times with a row gun, discard the gun tip, and the remaining test concentration points were operated sequentially to perform 7-fold gradient concentration dilution. […]
The MTS reagent was removed from the test samples after 5 days of action, thawed at room temperature and protected from light, vortexed and mixed thoroughly, and then 20 µL of Cell Titer One Solution Reagen MTS reagent was added along the side wall of the wells for every 100 µL of cell culture volume in a biosafety cabinet. […] After the end of the reaction, took out the 96-well plate, placed in the enzyme labeling instrument to detect the OD490 nm absorbance value, and performed the data recording, organization and storage.

[2] = tested on: N87 tumor cells; experiment: In vitro activity test (MTS, 5 days), growth inhibition of N87 cells; type: cell-based; details: 120 h
Procedure: The biosafety cabinet was turned on for UV light irradiation 30 min in advance, and subsequently ventilated for 3 minutes. The growth medium, assay medium, D-PBS and trypsin were preheated in a 37°C thermostatic water bath, after which the surface was sterilized with alcohol and placed in the biosafety cabinet. Cells with a confluence of ~80% (logarithmic growth phase) were selected and placed in a biosafety cabinet, old medium was aspirated off, rinsed with D-PBS, aspirated and discarded, digested with trypsin for 2-3 minutes, after which growth medium was added to terminate the trypsin, and centrifuged at 500 × g for 5 minutes. The centrifugation supernatant was aspirated off, and the cells were mixed with 4 mL of assay medium, and 100 uL of the cells were taken for counting (of which 50 uL of cytosol was taken out, and 50 uL of 0.4% cell solution was added to 50 µL of 0.4% Trypan Blue Stain and mix, count after mixing). Spread the plate according to the previously set cell number, 80 uL/well in 96-well plate, wells E11, F11, G11 only received 80 uL of detection medium, the wells on the edge received 200 uL of DPBS to seal the edge. […]

COc1ccc(C2=CN3C(=O)c4cc(OC)c(OCC56CC(C(=O)N7C[C@@H](CCl)c8c7cc(O)c7cccc(C)c87)(C5)C6)cc4N=C[C@@H]3C2)cc1 [Compound A]
IC50 [1]: 0.52 nM

COc1cc2c(cc1OCC13CC(C(=O)N4C[C@@H](CCl)c5c4cc(O)c4cccc(C)c54)(C1)C3)N=C[C@@H]1CC(c3ccc(NC(=O)CO)cc3)=CN1C2=O [Compound B1]
IC50 [1]: 4.23 nM
IC50 [2]: 5.03 nM

COc1cc2c(cc1OCCCCC(=O)N1C[C@@H](CCl)c3c1cc(O)c1cccc(C)c31)N=C[C@@H]1CC(c3ccc(NC(=O)CO)cc3)=CN1C2=O [Compound C1]
IC50 [1]: 8.67 nM
IC50 [2]: 9.68 nM

COc1cc2c(cc1OCCCCC(=O)N1C[C@@H](CCl)c3c1cc(O)c1cccc(C)c31)N=C[C@@H]1Cc3ccc(NC(=O)CO)cc3N1C2=O [Compound D1]
IC50 [1]: 10.3 nM
IC50 [2]: 12.3 nM
